Experimental data: the NIST ThermoML archive (doi:10.1016/j.jct.2013.04.021)

Test: xn = mol fraction of the nth substance listed
Settings: 101 kPa, Liquid; for mass density: Vibrating tube method; for speed of sound: fixed-path interferometer; for viscosity: Capillary tube (Ostwald / Ubbelohde) method

CCCCOCCO [2-butoxyethan-1-ol] + CCCCCCO
Settings | mass density, 293.15 K [kg/m3] | mass density, 298.15 K [kg/m3] | mass density, 303.15 K [kg/m3] | speed of sound, 293.15 K [m/s] | speed of sound, 298.15 K [m/s] | viscosity, 298.15 K [mPa·s] | viscosity, 303.15 K [mPa·s]
x1 = 0.0535 | 823.637 | 820.01 | 816.368 | 1320 | 1303.1 | 4.359 | 3.706
x1 = 0.1046 | 827.82 | 824.093 | 820.503 | 1319.4 | 1302.6 | 4.133 | 3.56
x1 = 0.1546 | 831.917 | 828.161 | 824.557 | 1319.1 | 1302.2 | 4.004 | 3.421
x1 = 0.2054 | 836.077 | 832.312 | 828.676 | 1318.8 | 1301.8 | 3.821 | 3.3
x1 = 0.253 | 839.982 | 836.221 | 832.536 | 1318.5 | 1301.6 | 3.691 | 3.19
x1 = 0.2999 | 843.819 | 840.066 | 836.324 | 1318.3 | 1301.4 | 3.616 | 3.1
x1 = 0.4044 | 852.353 | 848.606 | 844.739 | 1318.3 | 1301.3 | 3.464 | 2.916
x1 = 0.5039 | 860.457 | 856.686 | – | 1318.5 | 1301.5 | 3.305 | 2.781
x1 = 0.5932 | 867.724 | 863.892 | – | 1318.9 | 1301.8 | 3.139 | 2.694
x1 = 0.7003 | 876.414 | 872.492 | – | 1319.6 | 1302.6 | 3.046 | 2.631
x1 = 0.8019 | 884.63 | 880.623 | – | 1320.7 | 1303.6 | 2.996 | 2.583
x1 = 0.8545 | 888.867 | 884.811 | – | 1321.4 | 1304.3 | 2.908 | 2.573
x1 = 0.8987 | 892.418 | 888.334 | – | 1322 | 1305 | 2.897 | 2.595
x1 = 0.9522 | 896.698 | 892.569 | – | 1322.8 | 1305.7 | 2.871 | 2.613
